From article PMC7782552, “Activation of mitochondrial TUFM ameliorates metabolic dysregulation through coordinating autophagy induction” (Communications Biology, 2021)

Target: T1, TUFM (mitochondrial elongation factor Tu) (Mus musculus, UniProt Q8BFR5)
T1 construct: endogenous protein in 3T3-L1 cell lysate
Assay: DARTS (pronase protection) immunoblot, dose-dependent, and DARTS LC-MS/MS in 3T3-L1 lysate
Assay type: biochemical

COc1ccc(-c2oc3cc(O)cc(O)c3c(=O)c2O)cc1 [Kaem, kaempferide]
EC50: 14.4 µM
